The text below walks through data of patent US8829000B2, “Substituted imidazo[1,5-A]quinoxalines as phosphodiesterase 9 inhibitors” (ASKA Pharmaceutical Co., Ltd., priority 2006, dated 2014).

Structures can show the parent of a compound that is named as a salt.

The experiment relates to partial urethra obstruction model in guinea pigs. Put plainly: Dysuria pathological model: cystometry in partial urethra obstruction model. The experiment is classed as in vivo, Hartley female guinea pigs. Conditions: guinea pig; for Frequency of occurrence of uninhibited contraction, before administration / Residual urine volume, before administration: baseline. How it is done:
Three-four weeks old Hartley female guinea pigs (Japan SLC, Inc.) were given celiotomy under anesthesia with pentobarbital (30 mg/kg i.p.) and in their urethra to the peripheral side by 1-2 mm from the bladder neck, each a polyethylene tube of […] and 2.0 mm in inner diameter was placed.
The model was catheterized under anesthesia with urethane (1 g/kg i.p.) at the apex of urinary bladder and right jugular vein for cystometrography and intravenous administration, respectively. The other end of the bladder catheter was connected to a pressure transducer and infusion pump via a three way stop-cock, and physiological saline was continuously infused into the bladder through the infusion pump at a rate of 0.4 mL/min. to induce micturition reflex. Immediately after the micturition reflex was induced, infusion of physiological saline into the bladder was stopped. The intravesical pressure at the time the micturition reflex was induced was measured with the pressure transducer, and the obtained cystometrogram was recorded with pen recorder. The urine voided was collected with disposable type weighing dish and its weight was measured. Further the physiological saline remained in the bladder was sucked with syringe via the bladder catheter and the residual urine volume was measured. The operations of suspending the infusion of physiological saline upon induction of micturition reflex, and about 1 minute thereafter resuming the infusion of physiological saline to induce micturition reflex were repeated plural times (generally 4 times) to stabilize the micturition reflex.
After stabilizing the micturition reflex, a compound solution (prepared by dissolving the compound or methanesulfonic acid salt thereof in DMSO and diluting it with physiological saline or distilled water) or physiological saline was administered into the vein at a volume of 10 mL/kg over 4 minutes, and simultaneously the above-described micturition reflex operations were repeated until 30 minutes passed after initiation of the administration, while measuring the intravesical pressure and the volumes of micturition and residual urine. Also the frequency of uninhibited contraction occurrence during the above-described operations was recorded.

Regarding `CC(C)c1ncc2c(=O)[nH]c3cc(Cl)ccc3n12` [Example 6 (methanesulfonic acid salt)], under “0.1 mg/kg i.v.”, the “Frequency of occurrence of uninhibited contraction, after administration” value came out at 1.82 times/min; the “Frequency of occurrence of uninhibited contraction, quantitative change” value is recorded as “+0.62 times/min”; the “Residual urine volume, after administration” value was determined as 0.13 mL; the “Residual urine volume, quantitative change” value was -0.12 mL. Moreover, where the note is “1 mg/kg i.v.”, the “Frequency of occurrence of uninhibited contraction, after administration” value turned out to be 1.97 times/min; the “Frequency of occurrence of uninhibited contraction, quantitative change” value is reported as “+0.77 times/min”; the “Residual urine volume, after administration” value is recorded as 0.47 mL; the “Residual urine volume, quantitative change” value stood at 0.22 mL. For the same compound, for the setting “3 mg/kg i.v.”, the “Frequency of occurrence of uninhibited contraction, after administration” value is recorded as 0.68 times/min; the “Frequency of occurrence of uninhibited contraction, quantitative change” value was −0.52 times/min; the “Residual urine volume, after administration” value is reported as 0.21 mL; the “Residual urine volume, quantitative change” value is -0.04 mL. For the same compound, where the note is “dose group 0.1 mg/kg i.v.”, the “Frequency of occurrence of uninhibited contraction, before administration” value is listed as 1.20 times/min and the “Residual urine volume, before administration” value is 0.25 mL. Besides, under “dose group 1 mg/kg i.v.”, the “Frequency of occurrence of uninhibited contraction, before administration” value is 1.20 times/min and the “Residual urine volume, before administration” value stood at 0.25 mL. Also, under “dose group 3 mg/kg i.v.”, the “Frequency of occurrence of uninhibited contraction, before administration” value is recorded as 1.20 times/min and the “Residual urine volume, before administration” value is on record as 0.25 mL.

`CC(C)c1ncc2c(=O)[nH]c3cc(C(=O)N(C)C)ccc3n12` [Example 9 (methanesulfonic acid salt)]: under “0.3 mg/kg i.v.”, the “Frequency of occurrence of uninhibited contraction, after administration” value was 1.45 times/min; the “Frequency of occurrence of uninhibited contraction, quantitative change” value is −0.64 times/min; the “Residual urine volume, after administration” value turned out to be 0.11 mL; the “Residual urine volume, quantitative change” value was -0.32 mL. Besides, under “3 mg/kg i.v.”, the “Frequency of occurrence of uninhibited contraction, after administration” value is reported as 0.99 times/min; the “Frequency of occurrence of uninhibited contraction, quantitative change” value was −1.10 times/min; the “Residual urine volume, after administration” value is 0.63 mL; the “Residual urine volume, quantitative change” value is recorded as “+0.20 mL”. Also, where the note is “10 mg/kg i.v.”, the “Frequency of occurrence of uninhibited contraction, after administration” value came out at 0.00 times/min; the “Frequency of occurrence of uninhibited contraction, quantitative change” value is recorded as −0.57 times/min; the “Residual urine volume, after administration” value was found to be 0.03 mL; the “Residual urine volume, quantitative change” value is -0.34 mL. Further, under “dose group 0.3 mg/kg i.v.”, the “Frequency of occurrence of uninhibited contraction, before administration” value came out at 2.09 times/min and the “Residual urine volume, before administration” value amounted to 0.43 mL. In addition, for the setting “dose group 3 mg/kg i.v.”, the “Frequency of occurrence of uninhibited contraction, before administration” value is 2.09 times/min and the “Residual urine volume, before administration” value was 0.43 mL. Moreover, under “dose group 10 mg/kg i.v.”, the “Frequency of occurrence of uninhibited contraction, before administration” value worked out at 0.57 times/min and the “Residual urine volume, before administration” value was determined as 0.37 mL.
